Test results: ChEMBL document CHEMBL1145076, “Synthesis and activity of new aryl- and heteroaryl-substituted pyrazole inhibitors of the transforming growth factor-beta type I receptor kinase domain” (J Med Chem, 2003)

What was measured:
TGF-beta receptor type-1 [1] = biological target: T1, TGF-beta receptor type-1 (Homo sapiens, UniProt P36897); test: In vitro inhibition of transforming growth factor- beta dependent luciferase production in mink lung cells (p3TP Lux); assay type: functional, cell-based
T1 sequence (P36897 whole entry): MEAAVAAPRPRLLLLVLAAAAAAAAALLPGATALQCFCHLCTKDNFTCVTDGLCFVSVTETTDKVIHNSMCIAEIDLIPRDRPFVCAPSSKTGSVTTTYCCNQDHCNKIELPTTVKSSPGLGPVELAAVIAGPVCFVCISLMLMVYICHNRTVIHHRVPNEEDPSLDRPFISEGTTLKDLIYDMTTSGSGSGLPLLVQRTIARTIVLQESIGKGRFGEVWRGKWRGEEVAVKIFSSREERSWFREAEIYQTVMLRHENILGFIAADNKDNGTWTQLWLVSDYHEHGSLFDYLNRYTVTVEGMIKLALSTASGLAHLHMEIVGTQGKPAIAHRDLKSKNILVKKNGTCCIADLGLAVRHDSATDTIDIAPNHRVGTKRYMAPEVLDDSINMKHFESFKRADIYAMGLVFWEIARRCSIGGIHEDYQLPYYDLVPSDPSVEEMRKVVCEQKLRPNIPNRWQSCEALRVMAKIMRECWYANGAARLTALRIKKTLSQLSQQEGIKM

[2] = biological target: Mitogen-activated protein kinase 14 (Homo sapiens, UniProt Q16539); test: In vitro inhibitory activity against Mitogen-activated protein kinase p38
Sequence of Mitogen-activated protein kinase 14 (Q16539 whole entry): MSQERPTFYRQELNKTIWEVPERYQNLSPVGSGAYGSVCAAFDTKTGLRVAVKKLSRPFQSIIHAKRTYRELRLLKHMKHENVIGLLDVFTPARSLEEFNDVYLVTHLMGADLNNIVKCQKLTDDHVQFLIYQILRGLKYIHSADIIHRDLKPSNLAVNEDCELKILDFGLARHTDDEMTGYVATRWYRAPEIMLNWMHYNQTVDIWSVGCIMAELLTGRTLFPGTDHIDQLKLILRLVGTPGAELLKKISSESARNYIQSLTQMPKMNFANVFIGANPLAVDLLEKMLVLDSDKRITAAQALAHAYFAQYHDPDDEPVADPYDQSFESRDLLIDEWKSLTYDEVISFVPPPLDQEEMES

TGF-beta receptor type-1 [3] = biological target: T1, TGF-beta receptor type-1; test: In vitro inhibition of transforming growth factor- beta dependent luciferase growth in mouse fibroblasts (NIH 3T3); assay type: functional; settings: target entry is the homologue from another species
TGF-beta receptor type-1 [4] = biological target: T1, TGF-beta receptor type-1; test: In vitro inhibitory activity against human Transforming growth factor beta-1 receptor kinase (TGF-beta RIK)

Row | SMILES | IC50 (TGF-beta receptor type-1 [1]) [nM] | IC50 [2] [nM] | IC50 (TGF-beta receptor type-1 [3]) [nM] | IC50 (TGF-beta receptor type-1 [4]) [nM]
1 | Cc1cccc(-c2[nH]ncc2-c2ccc(Cl)cc2)n1 | 551 | > 20000 | 421 | 57
2 | c1ccc(Cn2cc(-c3ccnc4ccccc34)c(-c3ccccn3)n2)cc1 | 399 | 510 | 1340 | 369
3 | c1ccc(-c2n[nH]cc2-c2ccnc3ccccc23)cc1 | 1200 | 25 | 2920 | 382
4 | Cc1cccc(-c2[nH]ncc2-c2ccc(F)c(F)c2)n1 | 788 | > 20000 | 683 | 151
5 | c1ccc(-c2c[nH]nc2-c2ccccn2)cc1 | > 9000 | > 20000 | 9540 | 3990
6 | Cc1cccc(-c2n[nH]cc2-c2ccccc2)n1 | 3370 | > 20000 | 2160 | 543
7 | FC(F)(F)c1cccc(-c2n[nH]cc2-c2ccnc3ccccc23)c1 | 355 | 6.8 | 524 | 217
8 | c1csc(-c2n[nH]cc2-c2ccnc3ccccc23)c1 | 1660 | 400 | 2810 | 353
9 | c1ccc(-c2n[nH]cc2-c2ccnc3ccccc23)nc1 | – | 740 | – | –
10 | Fc1ccc(-c2c[nH]nc2-c2ccccn2)cc1 | 3530 | 6800 | 2590 | 275
11 | c1ccc(-c2c[nH]nc2-c2ccnc3ccccc23)nc1 | 683 | 7700 | 1680 | 150
12 | Brc1cccc(-c2n[nH]cc2-c2ccnc3ccccc23)n1 | 2.9 | 110 | 1.2 | 31
13 | Clc1ccc(-c2n[nH]cc2-c2ccnc3ccccc23)nc1 | > 10000 | 2300 | 4670 | 1760

More lines, in order of falling IC50 (TGF-beta receptor type-1 [1]), values ahead:

Row | IC50 (TGF-beta receptor type-1 [1]) [nM] | IC50 [2] [nM] | IC50 (TGF-beta receptor type-1 [3]) [nM] | IC50 (TGF-beta receptor type-1 [4]) [nM] | SMILES
14 | 139 | > 20000 | 41 | 70 | Cc1cccc(-c2n[nH]cc2-c2ccc(F)cc2)n1
15 | 94 | 280 | 538 | 203 | c1ccc(-c2n[nH]c(C3CC3)c2-c2ccnc3ccccc23)nc1
16 | 94 | 1300 | 76 | 91 | Fc1ccc(-c2n[nH]cc2-c2ccnc3ccccc23)nc1
17 | 47 | 5400 | 61 | 44 | COc1ccc(-c2cn(C)nc2-c2cccc(C)n2)cc1
18 | 44 | 560 | 32 | 31 | Cc1cccc(-c2n[nH]cc2-c2ccc(O)cc2)n1
19 | 24 | 250 | 148 | 82 | Cc1cccc(-c2n[nH]c(C)c2-c2ccnc3ccccc23)n1
20 | 2.9 | 78 | 7.1 | 34 | Cc1cccc(-c2n[nH]cc2-c2ccnc3ccccc23)n1
